In ChEMBL document CHEMBL1201862, “PubChem BioAssay data set” (2004):
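Results reflect a 48-hour exposure of cells in 96-well plates to compound at five concentrations. GI50 marks 50% less growth.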 Calls of active or inactive are those of the source. Cut-off read from the data, not from the text of the source: active = GI50 up to about 1.1 µM and inactive = higher.

What was measured:
Assay in all cases: NCI anticancer screen, dose series, 48 h
[1] = test system: Hs-578T
[2] = test system: BT-549
[3] = test system: T47D
[4] = test system: LXFL 529
[5] = test system: KM-20L2
[6] = test system: M19-MEL
[7] = test system: XF498
[8] = test system: HOP-18

| Structure (SMILES) | GI50 [1] | GI50 [2] | GI50 [3] | further results |
| --- | --- | --- | --- | --- |
| C=C1C(=O)O[C@H]2[C@H](OC(C)=O)[C@@H](C)CCC/C(C)=C/CC[C@@]3(C)O[C@@H]3C[C@@H]12 | 3.32 µM (inactive) | 2.94 µM (inactive) | 1.6 µM (inactive) | – |
| O=C(O)CCN1CCN(CCC(=O)O)CCN(CCC(=O)O)CC1 | > 100 µM (inactive) | > 100 µM (inactive) | > 100 µM (inactive) | – |
| O=c1c2cc(-c3ccccc3)cnc2sn1-c1ccc(Oc2ccccc2)cc1 | – | 23.2 µM (inactive) | 63 µM (inactive) | – |
| COc1ccc(/C=C2\CC3C4CC=C5C[C@@H](N6CCCC6)CC[C@]5(C)C4CC[C@]3(C)[C@H]2O)cc1OC (stereo partly drawn) | 11 µM (inactive) | 8.87 µM (inactive) | 12.2 µM (inactive) | – |
| N#Cc1nnn(C2CCCCC2)c1O | > 100 µM (inactive) | > 100 µM (inactive) | > 100 µM (inactive) | – |
| ClCCN1CCO/C1=N/c1ccc2c(c1)CCCC2 | 13.9 µM (inactive) | – | 8.51 µM (inactive) | – |
| CCn1c2c(c3ccccc31)C(c1ccccc1)CC1C(=O)N(c3ccccc3)C(=O)C21 (stereo not drawn) | – | – | – | GI50 [4]: 42.8 µM (inactive); GI50 [5]: > 100 µM (inactive); GI50 [6]: > 100 µM (inactive); GI50 [7]: 15.8 µM (inactive) |
| Cc1c(C#N)c(=N)oc2ccccc12 | > 100 µM (inactive) | > 100 µM (inactive) | 75.7 µM (inactive) | – |
| CC[C@@H]1/C=C/C=C/C[C@H](C)[C@@H](O)[C@](C)(O)C(=O)[C@H](C)[C@@H](O)[C@H](C)C(=O)[C@H](C)[C@@H](O)[C@H](C)/C=C/C(=O)O[C@H]2[C@@H](C)[C@@H](CC1)O[C@]1(O[C@H](CC(C)O)[C@H](C)CC1=O)[C@@H]2C (stereo partly drawn) | 5.36 µM (inactive) | 3.75 µM (inactive) | < 0.0025 µM (active) | – |
| CC(C)(C)C1=C(Br)C(F)(C(C)(C)C)OP1(=O)c1ccccc1 (stereo not drawn) | 29.6 µM (inactive) | – | 15.9 µM (inactive) | – |
| CS(=O)(=O)c1nc(-c2cc3c(c(S(C)(=O)=O)n2)CCC3)cc2c1CCCC2 | 2.55 µM (inactive) | 32.1 µM (inactive) | – | – |
| N#CC1(C#N)C=CC(=C2OCC3CCCN23)C=C1 (stereo not drawn) | – | – | – | GI50 [8]: > 100 µM (inactive); GI50 [4]: > 100 µM (inactive); GI50 [5]: > 100 µM (inactive); GI50 [6]: > 100 µM (inactive) |
| Cc1cccc(N2CCN(S(=O)(=O)c3ccc(Cl)cc3)C2=N)c1C | – | > 100 µM (inactive) | > 100 µM (inactive) | – |
| O=c1c2sc(=S)n(-c3ccc(F)cc3)c2ncn1/N=C/c1ccc(F)cc1F | 29.1 µM (inactive) | 15.4 µM (inactive) | – | – |
| [N-]=[N+]=CC(=O)OC1Cc2ccccc2C1 | 42.9 µM (inactive) | > 100 µM (inactive) | > 100 µM (inactive) | – |
| COc1ccc(/N=N/C(=O)NC(CC(C)C)C(=O)NCC(=O)O)cc1 (stereo not drawn) | 89.3 µM (inactive) | > 38.7 µM (inactive) | 3.03 µM (inactive) | – |

| Structure (SMILES) | GI50 [1] | GI50 [2] | GI50 [3] | further results |
| --- | --- | --- | --- | --- |
| COc1cc(C(=O)Oc2c(C#N)sc3c2c(=O)n(-c2ccccc2)c(=S)n3-c2ccccc2)cc(OC)c1OC | 8.26 µM (inactive) | – | 25.5 µM (inactive) | – |
| CC(C)(C)C(=O)Nc1c(C=O)ccc2[nH]cnc12 | – | > 100 µM (inactive) | > 100 µM (inactive) | – |
| CN1C(=O)c2ccccc2NC(=O)C12O[C@@H]2c1cccc(O)c1 (stereo partly drawn) | > 100 µM (inactive) | – | > 100 µM (inactive) | – |
| C1C2CC3CC1CC(Nc1nc(NC45CC6CC(CC(C6)C4)C5)nc(NC45CC6CC(CC(C6)C4)C5)n1)(C2)C3 | 43.4 µM (inactive) | > 68.2 µM (inactive) | 72.1 µM (inactive) | – |
| CS(=O)(=O)O[C@H]1[C@H](O)c2ccccc2[C@@H]1N=[N+]=[N-] | – | > 100 µM (inactive) | – | – |
| COc1ccccc1/C=C1\C(=O)N(C(=O)c2ccc(NC(C)=O)cc2)N=C1C | – | – | – | GI50 [6]: > 100 µM (inactive); GI50 [7]: > 100 µM (inactive) |
| CC(C)(C)c1cc(CCCCCCCC2(CCCCCCCc3cc(C(C)(C)C)cc(C(C)(C)C)c3)OC(COCCOCCCCCC#N)C(COCCOCCCCCC#N)O2)cc(C(C)(C)C)c1 (stereo not drawn) | – | – | – | GI50 [8]: > 100 µM (inactive); GI50 [4]: > 100 µM (inactive); GI50 [5]: > 100 µM (inactive); GI50 [6]: > 100 µM (inactive) |
| CCOC(=O)/C=C(/C(=O)OCC)n1cc(C)c(=O)n(Cc2cnnn2CCCCOC(C)=O)c1=O | 45.5 µM (inactive) | 10.5 µM (inactive) | 24 µM (inactive) | – |
| COC(=O)[C@H](Cc1c[nH]c2ccccc12)NP(=O)(O)OC[C@H]1O[C@@H](n2cc(C)c(=O)[nH]c2=O)C[C@@H]1N=[N+]=[N-] | > 100 µM (inactive) | > 100 µM (inactive) | > 100 µM (inactive) | – |
| CC(=O)O[C@H]1C(=O)[C@@]2(C)C(C(OC(=O)c3ccccc3)[C@]3(O)CC(OC(=O)C(O)C(NC(=O)c4cccc(Cl)c4)c4ccccc4)C(C)=C1C3(C)C)[C@]1(OC(C)=O)CO[C@@H]1C[C@@H]2O (stereo partly drawn) | – | 6.58 µM (inactive) | – | – |
| CN(C)c1ccc(/C=C/c2nc3ccccc3s2)cc1 | > 100 µM (inactive) | 80 µM (inactive) | > 100 µM (inactive) | – |
| COc1cc(OC)c2c(=O)cc(-c3ccc(OC)c(OC)c3OC)oc2c1 | – | – | – | GI50 [4]: 89.5 µM (inactive); GI50 [5]: > 100 µM (inactive); GI50 [6]: > 100 µM (inactive); GI50 [7]: > 100 µM (inactive) |
| COc1cc(Cn2c3ccccc3c3cc(C)c4c(c32)C=CC(C)(CCC=C(C)C)O4)cc2c1[nH]c1ccccc12 (stereo not drawn) [CHRESTFOLINE C] | – | – | – | GI50 [8]: > 100 µM (inactive); GI50 [4]: 88.5 µM (inactive); GI50 [5]: > 100 µM (inactive); GI50 [6]: > 100 µM (inactive) |
| C=C(Cl)[C@](Cl)(CBr)CC[C@@H](Br)C(C)(C)Cl [HALOMON] | 0.611 µM (active) | 1.29 µM (inactive) | 3.18 µM (inactive) | – |
| COc1cccc(O)c1-c1cc(=O)c2c(O)c(OC)c(OC)c(OC)c2o1 [SKULLCAPFLAVONE II] | 35.9 µM (inactive) | 27.2 µM (inactive) | – | – |
